Results on 2 compounds are retold here after BindingDB's records for doi:10.1021/jm200288r (National Institute On Drug Abuse-Intramural Research Program, 2011).

A short description of the assay: Antagonist activity at human dopamine D2 receptor expressed in CHOp cells assessed as inhibition of quinpirole-induced mitogenesis.

The term IC50 denotes the point on the concentration scale where inhibition reaches its midpoint.

SMILES strings stand for the structures.

As for `COc1ccccc1N1CCN(CC(F)CCNC(=O)c2cc3ccccc3s2)CC1` (configuration not stated) [N-(3-Fluoro-4-(4-(2-methoxyphenyl)piperazin-1-yl)butyl)-benzo[b]thiophene-2-carboxamide], the half-maximal inhibitory concentration (IC50) was found to be 0.421 µM.

Consider `COc1ccc2oc(C(=O)NCCC(F)CN3CCN(c4cccc(Cl)c4Cl)CC3)cc2c1` (configuration not stated) [N-(4-(4-(2,3-Dichlorophenyl)piperazin-1-yl)-3-fluorobutyl)-5-methoxybenzofuran-2-carboxamide], for which the half-maximal inhibitory concentration (IC50) stood at 1.6 µM.
